# ChEMBL document CHEMBL2057108 (Bioorg Med Chem Lett, 2012)
# Legend:
# [1] = Half life in rat liver microsomes; type: ADME, Microsome; conditions: liver microsomes
# [2] = Permeability across human Caco2 cells; type: ADME, cell-based; conditions: Caco-2, read-out: Kp
# [3] = organism: Homo sapiens; assay: Selectivity ratio of Ki for human 5HT3A receptor to Ki for human 5HT4C receptor
# [4] = target: hERG (KCNH2) (Homo sapiens, UniProt Q12809); assay: Inhibition of human ERG expressed in CHO cells at 3 uM; type: cell-based; conditions: CHO cells expressing human ERG
# Chain of hERG (KCNH2) (Q12809 whole entry): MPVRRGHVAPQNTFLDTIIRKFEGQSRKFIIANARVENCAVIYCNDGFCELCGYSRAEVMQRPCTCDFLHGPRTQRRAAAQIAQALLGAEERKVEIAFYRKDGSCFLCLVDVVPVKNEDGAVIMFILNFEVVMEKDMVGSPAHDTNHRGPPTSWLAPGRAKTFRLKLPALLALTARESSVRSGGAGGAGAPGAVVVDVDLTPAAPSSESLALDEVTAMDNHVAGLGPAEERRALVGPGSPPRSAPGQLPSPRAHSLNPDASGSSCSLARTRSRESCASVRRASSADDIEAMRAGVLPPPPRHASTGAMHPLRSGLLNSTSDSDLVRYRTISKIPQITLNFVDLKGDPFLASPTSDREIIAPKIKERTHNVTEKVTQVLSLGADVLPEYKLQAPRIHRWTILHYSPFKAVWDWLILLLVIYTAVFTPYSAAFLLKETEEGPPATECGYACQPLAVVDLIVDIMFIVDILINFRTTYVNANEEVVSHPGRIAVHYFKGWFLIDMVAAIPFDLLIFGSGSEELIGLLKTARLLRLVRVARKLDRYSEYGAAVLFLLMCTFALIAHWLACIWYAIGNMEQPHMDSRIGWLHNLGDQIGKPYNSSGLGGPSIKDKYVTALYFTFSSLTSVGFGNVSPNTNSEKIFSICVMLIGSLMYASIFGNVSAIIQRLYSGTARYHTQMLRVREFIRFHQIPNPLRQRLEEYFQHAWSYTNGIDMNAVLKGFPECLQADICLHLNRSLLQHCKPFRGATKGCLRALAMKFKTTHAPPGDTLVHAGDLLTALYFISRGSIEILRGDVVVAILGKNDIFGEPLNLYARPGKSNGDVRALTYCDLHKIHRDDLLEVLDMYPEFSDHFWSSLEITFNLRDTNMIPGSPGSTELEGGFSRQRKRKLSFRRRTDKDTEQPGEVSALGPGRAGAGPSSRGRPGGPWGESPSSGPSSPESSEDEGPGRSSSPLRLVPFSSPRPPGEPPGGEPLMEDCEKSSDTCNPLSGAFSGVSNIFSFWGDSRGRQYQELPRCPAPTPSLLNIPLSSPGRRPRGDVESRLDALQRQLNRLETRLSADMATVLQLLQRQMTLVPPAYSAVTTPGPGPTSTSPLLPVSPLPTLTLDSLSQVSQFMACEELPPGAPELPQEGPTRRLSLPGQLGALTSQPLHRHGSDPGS
# [5] = Oral bioavailability in Sprague-Dawley rat at 5 mg/kg; type: ADME, organism-based; conditions: in vivo
# [6] = AUC (0 to t) in Sprague-Dawley rat at 5 mg/kg, po; type: ADME, organism-based; set-up: dose 5 mg/kg, route oral; conditions: plasma
# [7] = Half life in Sprague-Dawley rat at 5 mg/kg, po; type: ADME, organism-based; set-up: dose 5 mg/kg, route oral; conditions: in vivo
# [8] = target: T1, 5-hydroxytryptamine receptor 4 (Homo sapiens, UniProt Q13639); assay: Agonist activity at human 5HT4C receptor expressed at 100 fold physiological-level in HEK293 cells assessed as cAMP accumulation; type: functional, cell-based
# T1 sequence (Q13639 whole entry): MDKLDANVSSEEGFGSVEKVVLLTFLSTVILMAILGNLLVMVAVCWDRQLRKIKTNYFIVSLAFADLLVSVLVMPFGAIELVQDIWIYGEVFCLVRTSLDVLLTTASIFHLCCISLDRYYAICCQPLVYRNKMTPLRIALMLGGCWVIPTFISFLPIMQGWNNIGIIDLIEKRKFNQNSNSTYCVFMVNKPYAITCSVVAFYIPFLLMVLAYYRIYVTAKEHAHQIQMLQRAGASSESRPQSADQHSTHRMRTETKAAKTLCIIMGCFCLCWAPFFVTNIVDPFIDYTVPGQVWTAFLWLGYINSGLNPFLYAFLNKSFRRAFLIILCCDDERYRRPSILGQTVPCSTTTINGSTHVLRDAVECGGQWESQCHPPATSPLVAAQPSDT
# [9] = target: T1, 5-hydroxytryptamine receptor 4; assay: biochemical
# Description: Displacement of [3H]GR113808 from human recombinant 5HT4C receptor expressed in HEK293 cells
# [10] = Cmax in Sprague-Dawley rat at 5 mg/kg, po; type: ADME, organism-based; set-up: dose 5 mg/kg, route oral; conditions: in vivo
# [11] = target: T1, 5-hydroxytryptamine receptor 4; assay: Intrinsic activity at human 5HT4C receptor expressed at 100 fold physiological-level in HEK293 cells assessed as cAMP accumulation relative to 5HT; type: functional, cell-based
# [12] = target: T1, 5-hydroxytryptamine receptor 4; assay: Agonist activity at human 5HT4C receptor expressed in a cell line expressing receptor at 10 fold physiological-level assessed as cAMP accumulation; type: functional
# [13] = target: T1, 5-hydroxytryptamine receptor 4; assay: 5-HT4C receptor-mediated exchange of GDP for europium labeled GTP (intrinsic activity)
# [14] = target: T1, 5-hydroxytryptamine receptor 4; assay: 5-HT4C receptor-mediated exchange of GDP for europium labeled GTP (pEC50)
# [15] = target: T1, 5-hydroxytryptamine receptor 4; assay: Intrinsic activity at human 5HT4C receptor expressed in a cell line expressing receptor at 10 fold physiological-level assessed as cAMP accumulation relative to 5HT; type: functional
# [16] = test system: Rattus norvegicus; assay: 5-HT4 receptor-mediated esophageal relaxation in anesthetized rat (following i.v. administration) using digital sonomicrometry; type: functional; conditions: Sprague-Dawley, iv
SMILES,half-life [1] [h],Papp [2] [×10⁻⁶ cm/s],Ratio Ki [3],inhibition at 3 µM [4] [%],bioavailability [5] [%],AUC(0-t) [6] [ng·h/mL],half-life [7] [h],EC50 [8] [nM],Ki [9] [nM],Cmax [10] [ng/mL],Intrinsic activity [11] [%],EC50 [12] [nM],Intrinsic activity [13] [%],EC50 [14] [nM],Intrinsic activity [15] [%],ED50 [16] [mg/kg]
CC(C)n1nc(C(=O)N[C@H]2C[C@H]3CC[C@@H](C2)N3C[C@@H](O)CN2CCN(S(C)(=O)=O)CC2)c2ccccc21,> 1.5,19,23000,7,36,240,7.4,0.398,2.51,35,86,–,–,–,–,–
CC(C)n1c(=O)c(C(=O)N[C@H]2C[C@H]3CC[C@@H](C2)N3C[C@@H](O)CN2CCN(S(C)(=O)=O)CC2)cc2ccccc21,–,–,7400,–,–,–,–,–,–,–,–,2,> 100,3.98,> 100,0.142
CC(C)N(C)CC(O)CN1[C@@H]2CC[C@H]1C[C@@H](NC(=O)c1nn(C(C)C)c3ccccc13)C2 (some centres undefined),> 1.5,26,6300,29,–,–,–,5.01,3.98,–,78,–,–,–,–,–
COC[C@@H]1CCCN1CC(O)CN1[C@@H]2CC[C@H]1C[C@@H](NC(=O)c1nn(C(C)C)c3ccccc13)C2 (some centres undefined),1.25,48,3000,33,–,–,–,2.51,3.98,–,108,–,–,–,–,–
CC(C)n1nc(C(=O)N[C@H]2C[C@H]3CC[C@@H](C2)N3CC(O)CN2CCN(S(C)(=O)=O)CC2)c2ccccc21 (some centres undefined),> 1.5,19,7300,4,–,–,–,0.794,3.98,–,95,–,–,–,–,–
CC(C)n1nc(C(=O)N[C@H]2C[C@H]3CC[C@@H](C2)N3CCN2CCN(S(C)(=O)=O)CC2)c2ccccc21,> 1.5,31,110,9,48,260,1.8,3.98,12.6,99,88,–,–,–,–,–
CC(C)n1nc(C(=O)N[C@H]2C[C@H]3CC[C@@H](C2)N3C[C@H](O)CN2CCN(S(C)(=O)=O)CC2)c2ccccc21,> 1.5,18,240,7,–,–,–,0.794,7.94,–,94,–,–,–,–,–
COC[C@@H]1CCCN1CCCCCCN1[C@@H]2CC[C@H]1C[C@@H](NC(=O)c1nn(C(C)C)c3ccccc13)C2,–,–,14,–,–,–,–,0.794,0.794,–,117,–,–,–,–,–
CC(C)n1nc(C(=O)N[C@H]2C[C@H]3CC[C@@H](C2)N3CCCCCCN2CCN(S(C)(=O)=O)CC2)c2ccccc21,–,–,3.6,–,–,–,–,12.6,2.51,–,75,–,–,–,–,–
